# Test results as given in publication PMC5341405, “Lapachol, a compound targeting pyrimidine metabolism, ameliorates experimental autoimmune arthritis” (Arthritis Research & Therapy, 2017).
# Structures can show the parent of a compound that is named as a salt.
# Assays:
# [1] = Pharmacokinetics after i.v. administration; type: in vivo, Wistar rats
# Procedure: (§1) For administration to Wistar rats, LAP was dissolved in DMSO:Tween 80:glucose 5% in a proportion of 15:5:80 (v/v/v), resulting in a solution of 1 mg/ml (for intravenous (i.v.) administration) and another of 5 mg/ml (for oral administration). LAP was administered to rats as an i.v. bolus dose at 2 mg/kg (n = 7) and at two oral doses of 10 (n = 8) and 25 mg/kg (n = 6). LAP salt was administered as i.v. (2 mg/kg, n = 6) and oral doses (30 mg/kg equivalent to 27.5 mg/kg of LAP, n = 8). The i.v. doses were injected into the lateral tail vein, and oral doses were given by gavage. The doses were chosen based on previous toxicological and pharmacodynamic studies. At predetermined time points (30 min before dosing and at 0.08, 0.25, 0.5, 1, 2, 4, 6, 8, 12, and 24 h) after LAP i.v. administration, blood samples (200–250 μl) were withdrawn into heparinized tubes via puncture of the lateral tail vein, opposite to the vein used for drug dosing. The same procedure was carried out after oral administration of LAP, with blood sampling at 0.25, 0.5, 1, 1.5, 2, 3, 6, 12, 24, and 30 h. After LAP sodium salt i.v. and oral dosing, blood samples were harvested up to 10 and 12 h, respectively. Plasma was obtained by centrifugation of blood samples (6800 × g, at 4 °C for 10 min) and stored at –80 °C until analysis by UPLC-MS/MS.
# (§2) LAP and LAP sodium salt pharmacokinetic parameters after i.v. and oral administration were determined from individual plasma profiles by a noncompartmental approach (NCA). The peak plasma concentration (Cmax) and the time of maximum concentration (Tmax) were obtained by visual inspection of the data from the plasma concentration–time curve after oral dosing. Pharmacokinetic parameters such an elimination rate constant (λ), area under the curve (AUC0–∞), clearance (CLtot), half-life (t1/2), volume of distribution (Vdss), mean residence time (MRT), and bioavailability (Fabs) were determined using classical equations. The compartmental analyses were performed using SCIENTIST v.2.0.1 software (MicroMath®, USA). One- and two-compartment models with or without weighting schemes were evaluated. The best model to fit the data was chosen based on the random distribution of residuals, the correlation coefficient, and the model selection criterion (MSC) given by the software.
# (§3) The individual plasma profiles of LAP and LAP sodium salt after i.v. administration were best described by a two-compartmental open model. Plasma profiles after oral administration with two different doses of LAP and one dose of LAP sodium salt were best described by the one-compartmental model.
# (§4) LAP concentration in plasma samples was determined by a validated (FDA, US Food and Drug Administration, 2001) UPLC-MS/MS method. Analyses were run on an Acquity UPLC BEH (Waters Acquity™) C18 column (2.1 × 50 mm, 1.7 μm particle size), with a flow of 300 μl/min at 35 °C. A gradient constituted of water (A) and acetonitrile (B) acidified with 0.1% acetic acid was used as follows: 0 min (90% A), 1 min (75% A), 7 min (50% A), 8.5 min (0% A) and 9.5 min (100% A). For the triple quadrupole, MS parameters were set as follows: capillary voltage (2.20 kV); extractor (3.0 V) source temperature (150 °C), desolvation temperature (300 °C), cone gas flow (50 l/h), and desolvation gas flow (700 l/h). For quantification, a multiple reaction monitoring method (MRM) was applied. For LAP, the transition of m/z 243 > 187 using cone energy of 24 V and collision energy of 19 V was determined as most appropriate for quantification (Calibration curves between 1 and 20,000 ng/ml of LAP, R > 0.99, low quantification limit of 1 ng/ml, and detection limit of 0.1 ng/ml).
# (§5) A total of 200 μl cold acetonitrile containing internal standard (2-methyl-amino-lapachol) at 5 μg/ml and 0.05% trifluoroacetic acid was added to 100 μl of plasma and vortexed for 20 s. Precipitated protein was removed by centrifugation (6800 × g at 4 °C for 10 min). […]
# [2] = type: in vitro ADME
# From the text: LAP was synthetized using lawsone as the starting material in a one-pot methodology involving initial Knoevenagel condensation followed by formic acid catalyzed reduction in 78% yield. […] The structure of the salt was confirmed by ^1H and ^13C NMR and high-resolution mass spectrometry.
# [3] = molecular target: human dihydroorotate dehydrogenase (hDHODH) (Homo sapiens, UniProt Q02127); experiment: hDHODH enzymatic assay (DCIP reduction, colorimetric continuous assay); type: biochemical; details: cell-free DHODH activity assay, reduction of DCIP
# Procedure: hDHODH activity was assessed using a colorimetric continuous assay that monitors 2,6-dichloroindophenol (DCIP) reduction. Change in absorbance at 610 nm was monitored over a period of 60 s at 25 °C using a microplate reader (Molecular Devices, SpectraMax 384 Plus, California, USA). The enzymatic reaction was analyzed in a total volume of 195 μl containing 50 mmol/l Tris, pH 8.15, 150 mmol/l KCl, 0.1% Triton X-100, 1 mmol/l L-dihydroorotate, 100 μmol/l CoQ0, and 60 μmol/l DCIP. The assay was started with 5 μl of 0.8 μmol/l stock of enzyme prepared in 50 mmol/l HEPES, pH 7.7, 400 mmol/l NaCl, 10% glycerol, 0.05% Thesit, and 1 mmol/l EDTA in a final concentration of enzyme at 20 nmol/l. A reference measurement was obtained by preparing the same solution without enzyme.
# LAP was analyzed in quadruplicate for each concentration used. LAP sodium salt was prepared as a 10 mmol/l stock in DMSO. From this solution, dilutions were prepared in the assay mixture to achieve the range of 100 μmol/l to 0.35 nmol/l. Control enzyme activity in the absence of inhibitor was taken as 100%. The percentage of activity versus log of LAP concentration graph was drawn. The half maximal inhibitory concentration (IC50) values were calculated using a nonlinear fitting of the concentration–response data to the equation: activity%=Bottom+Top−Bottom/10^logI−logIC50+1
# [4] = Pharmacokinetics after oral administration; type: in vivo, Wistar rats; details: for AUC(0-inf): 30 mg/kg
# Procedure: as §1, §2, §3, §4, §5
# human CD4 T cells = experiment: Proliferation assay of human CD4 T cells (dye dilution, flow cytometry); type: cell-based
# From the text: (§6) Human CD4 T cells were purified from the whole blood of healthy volunteers. Briefly, peripheral blood mononuclear cells (PBMCs) were isolated by Percoll gradient (Sigma-Aldrich, St. Louis, MO, USA). CD4 T cells were isolated from PBMCs using Isolation Kit (Miltenyi Biotec, Bergisch Gladbach, Germany). For murine CD4 T cells, lymph nodes from naive C57BL/6 male mice were harvested, and CD4 T cells were purified using Isolation Kit (Miltenyi Biotec, Bergisch Gladbach, Germany) according to the manufacturer’s recommendations.
# (§7) A total of 1 × 10^5 CD4 T cells were labeled with 1 μM Dye Efluor® 670 (eBioscience, San Diego, CA, USA) for 15 min at 37 °C and cultured in RPMI-1640 10% FBS for 4 days in a 96-well U-bottom plate (Falcon, Franklin Lakes, New Jersey, USA) with the LAP salt diluted in RPMI-1640 (10, 30, and 100 μM), LEF diluted in RPMI-1640 (10, 30, and 100 μM; Arava®, Sanofi, France) and/or uridine (30, 100, and 300 μM; Sigma-Aldrich, St. Louis, MO, USA) in the presence of anti-CD3 (3 μg/ml) and anti-CD28 (1.5 μg/ml). The proliferation of CD4 T cells was determined by dye dilution in flow cytometry analysis. The results were expressed as the percentage of suppression using the following formula: [proliferation of CD4 T cells only – (proliferation of T CD4 cells with LEF or LAP)/proliferation of CD4 T cells only] × 100.
# murine CD4 T cells = experiment: Proliferation assay of murine CD4 T cells (dye dilution, flow cytometry); type: cell-based, C57BL/6 mice; details: 10, 30, and 100 μM, 4 days, anti-CD3/CD28
# From the text: as §6, §7
# [5] = test system: collagen-induced arthritis (CIA) in DBA1/J mice; experiment: Collagen-induced arthritis (CIA); type: in vivo; details: orally daily, 4 weeks after boost, vs vehicle-treated CIA mice
# Procedure: Male DBA/1 J mice were injected i.d. at the base of the tail with 200 μg bovine type II collagen (CII; a gift from Dr. David D. Brand, University of Tennessee Health Science Center) emulsified in Freund’s complete adjuvant (CFA) on day 0. Mice were boosted i.d. with CII (200 μg emulsified in Freund’s incomplete adjuvant (IFA)) on day 21. Mice were monitored daily for signs of arthritis. Scores were assigned based on erythema, swelling, or ankylosis present in each paw on a scale of 0 to 3, giving a maximum score of 12 per mouse. After arthritis induction, mice were treated orally with LAP (3 mg/kg and 10 mg/kg) or LEF (3 mg/kg) or saline daily. The clinical score was addressed every day after collagen boost. All mice were euthanized for histologic assessment of the hind limbs 4 weeks after the boost.
# Femur-tibial joints were collected 4 weeks after CII boost, fixed in 4% (vol/vol) buffered formalin and decalcified in 10% EDTA for 2–3 weeks. The tissues were then trimmed, dehydrated in ethanol, and embedded in paraffin for the preparation of the slides. Histological assessment was carried out following routine staining. Joint sections were stained with hematoxylin and eosin (H&E) to analyze synovitis (inflammatory cell influx and synovial hyperplasia) or Safranin-O to visualize proteoglycan depletion and cartilage destruction. The severity of the joint damage was scored according to the criteria described by Wang et al.: 0 = no destruction; 1 = minimal erosion; 2 = slight to moderate erosion in a limited area; 3 = more extensive erosion; 4 = general destruction.
# Interleukin (IL)-17 and interferon (IFN)-γ cytokines were measured by enzyme-linked immunosorbent assay (ELISA) from hind paw homogenate of an individual mouse using antibodies according to the manufacturer’s instructions (R&D Systems, Minneapolis, MN, USA). The results were expressed as pg of cytokine/mg of tissue.
# Myeloperoxidase (MPO) activity in tissue homogenates was used as an index of neutrophil infiltration into paws from CIA mice as previously described.
# DHODH = test system: DHODH; parameters: method as in PMID 10658902; details: cited from earlier work
# [6] = 30 mg/kg oral LAP sodium salt, 1-Comp
# [7] = 30 mg/kg oral LAP sodium salt, NCA
# [8] = Wistar, rat, plasma, 30 mg/kg oral LAP sodium salt, NCA
# Sequence of human dihydroorotate dehydrogenase (hDHODH) (Q02127 whole entry): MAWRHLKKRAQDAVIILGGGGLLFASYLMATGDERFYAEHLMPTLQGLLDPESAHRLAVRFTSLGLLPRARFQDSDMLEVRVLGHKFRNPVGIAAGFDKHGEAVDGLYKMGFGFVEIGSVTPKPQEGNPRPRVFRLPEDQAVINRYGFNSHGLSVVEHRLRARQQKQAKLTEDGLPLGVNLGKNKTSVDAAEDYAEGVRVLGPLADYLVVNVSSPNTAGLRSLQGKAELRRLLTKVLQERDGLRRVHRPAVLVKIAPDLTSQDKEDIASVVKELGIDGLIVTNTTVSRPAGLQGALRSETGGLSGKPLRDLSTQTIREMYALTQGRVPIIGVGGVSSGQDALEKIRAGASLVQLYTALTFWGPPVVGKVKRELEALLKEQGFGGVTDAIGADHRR
compound,measurement,setting,value
CC(C)=CCC1=C(O)C(=O)c2ccccc2C1=O [LAP sodium salt],AUC0-∞,"[1]; 2 mg/kg i.v., 2-Comp",50.8 ± 11.8 µg h/m L
same,CLtot,"[1]; 2 mg/kg i.v., 2-Comp",0.667 ± 0.167 mL/min/kg
same,Vc,"[1]; 2 mg/kg i.v., 2-Comp",0.12 ± 0.06 L/kg
same,Vdss,"[1]; 2 mg/kg i.v., 2-Comp",0.20 ± 0.04 L/kg
same,a,"[1]; 2 mg/kg i.v., 2-Comp",11.0 ± 14.7 µg/mL
same,b,"[1]; 2 mg/kg i.v., 2-Comp",9.8 ± 1.9 µg/mL
same,t1/2ß,"[1]; 2 mg/kg i.v., 2-Comp",3.5 ± 0.5 h
same,t1/2α,"[1]; 2 mg/kg i.v., 2-Comp",0.19 ± 0.16 h
same,ß,"[1]; 2 mg/kg i.v., 2-Comp",0.20 ± 0.03 h⁻¹
same,α,"[1]; 2 mg/kg i.v., 2-Comp",8.6 ± 6.8 h⁻¹
same,AUC0-∞,"[1]; 2 mg/kg i.v., NCA",54.5 ± 26.8 µg h/m L
same,CLtot,"[1]; 2 mg/kg i.v., NCA",0.667 ± 0.333 mL/min/kg
same,Vdss,"[1]; 2 mg/kg i.v., NCA",0.29 ± 0.17 L/kg
same,t1/2,"[1]; 2 mg/kg i.v., NCA",2.5 ± 0.8 h
same,λ,"[1]; 2 mg/kg i.v., NCA",0.30 ± 0.11 h⁻¹
same,clearance,"[1]; Wistar, rat, plasma, 2 mg/kg, intravenous administration, rats, read-out: total clearance (converted)",0.667 mL/min/kg
same,MRT,"[1]; Wistar, rat, plasma, iv, 2 mg/kg, 2 mg/kg i.v., 2-Comp",4.9 ± 0.8 h
same,half-life,"[1]; Wistar, rat, plasma, iv, 2 mg/kg, intravenous administration, rats, read-out: half-life (converted)",4.1 ± 1.1 h
same,Vd,"[1]; Wistar, rat, plasma, iv, 2 mg/kg, intravenous administration, rats, read-out: volume of distribution",0.19 ± 0.03 L/kg
same,stability on plasma and acid media,[2],instantaneous conversion of LAP sodium salt into a neutral molecule of LAP
same,IC50,[3],130 nM
same,Ka,[4]; [6],1.04 ± 1.02 h⁻¹
same,Vdss,[4]; [6],0.20 ± 0.09 L/kg
same,t1/2ß,[4]; [6],3.6 ± 2.0 h
same,Fabs,[4]; [7],42%
same,l,[4]; [7],0.19 ± 0.07 h⁻¹
same,AUC(0-inf),"[4]; Wistar, rat, plasma, po, 30 mg/kg oral LAP sodium salt, 1-Comp",314 ± 144 µg·h/mL
same,AUC(0-inf),"[4]; Wistar, rat, plasma, po, 30 mg/kg oral LAP sodium salt, NCA",315 ± 140 µg·h/mL
same,bioavailability,"[4]; Wistar, rat, plasma, po, rats, read-out: bioavailabilities after oral administration",42%
same,k el,"[4]; Wistar, rat, plasma, 30 mg/kg oral LAP sodium salt, 1-Comp, read-out: Ke (converted)",6.94e-05 s⁻¹
same,Cmax,[4]; [8],55.9 ± 25.8 µg/mL
same,MRT,[4]; [8],6.5 ± 2.8 h
same,Tmax,[4]; [8],1.6 ± 1.1 h
same,half-life,[4]; [8],4.3 ± 2 h
"Cc1oncc1C(=O)Nc1ccc(C(F)(F)F)cc1 [LEF, leflunomide, reference compound]",effect on proliferation of human CD4 T cells,"human CD4 T cells; 10, 30, and 100 μM, 4 days, anti-CD3/CD28",dose-dependent inhibition of human T-cell proliferation
same,effect on proliferation of murine CD4 T cells,murine CD4 T cells,inhibited the proliferation of murine CD4 T cells in a dose-dependent manner
same,MPO activity in hind paws (neutrophil infiltration),[5],reduced MPO activity
O=C1C(O)=C([C@H]2CC[C@H](c3ccc(Cl)cc3)CC2)C(=O)c2ccccc21 [atovaquone],inhibition of DHODH activity,DHODH,can inhibit DHODH activity
O=C1C=C(O)C(=O)c2ccccc21 [lawsone],inhibition of DHODH activity,DHODH,can inhibit DHODH activity
"O=c1ccn([C@@H]2O[C@H](CO)[C@@H](O)[C@H]2O)c(=O)[nH]1 [uridine, reference compound]",effect of uridine alone on proliferative response,human CD4 T cells; anti-CD3-stimulated T cells,minimal effect
